Measurements as given in PMC3566091, “Binding of the Radioligand SIL23 to α-Synuclein Fibrils in Parkinson Disease Brain Tissue Establishes Feasibility and Screening Approaches for Developing a Parkinson Disease Imaging Agent” (PLoS ONE, 2013).
Read-outs that look alike come from different tables or passages of the source.

Columns and labels:
Aβ plaques in AD brain [1] = details: cited from earlier work
[2] = target: T1, Human PD brain homogenate (insoluble fraction) (Homo sapiens, UniProt P37840); details: read-out: Ki, Human PD brain homogenate; 200 nM [125I]SIL23, 10 µg insoluble fraction/150 µl; 95% confidence interval in parentheses
Experimental: (§2) Reactions were incubated at 37°C for 2 h before quantifying bound radioligand as described above for the saturation binding assay. All data points were performed in triplicate.

[3] = target: T2, recombinant α-syn fibrils (Homo sapiens, UniProt P37840); details: read-out: Ki, α-Syn fibrils; 200 nM [125I]SIL23, 1 µM fibrils; Ki from EC50; 95% confidence interval in parentheses
Experimental: (§3) Purified recombinant α-syn monomer (2 mg/ml) was incubated in 20 mM Tris-HCl, pH 8.0, 100 mM NaCl for 72 h at 37°C with shaking at 1000 rpm in an Eppendorf Thermomixer. To determine the concentration of fibrils, the fibril reaction mix was centrifuged at 15,000×g for 15 min to separate fibrils from monomer. The concentration of α-syn monomer in the supernatant was determined in a BCA protein assay according to the manufacturer’s instructions, using a bovine serum albumin (BSA) standard curve. The measured decrease in α-syn monomer concentration was used to determine the concentration of fibrils in the 72 h fibril reaction mixture.
(§4) The prepared fibril mixture was centrifuged at 15,000×g for 15 min to prepare fibrils for binding assays.
as §2

PD tissue = system: PD tissue; design: method as in PMID 19576880; details: cited from earlier work
[4] = target: T2, recombinant α-syn fibrils; assay: biochemical
Experimental: as §3, §4, §2

[5] = target: T1, Human PD brain homogenate (insoluble fraction); assay: biochemical
Experimental: as §2

Aβ plaques in AD brain [6] = system: Aβ plaques in AD brain; design: method as in PMID 16291932; details: cited from earlier work
recombinant tau fibrils [7] = target: T3, recombinant tau fibrils (Homo sapiens, UniProt P10636); assay: biochemical
Experimental: (§5) To determine the concentration of fibrils, the fibril reaction mixer was centrifuged at 15,000×g for 15 min to separate fibrils from monomer. The concentration of tau monomer in the supernatant was determined in a BCA protein assay along with a BSA standard curve. The measured decrease in monomer concentration was used to determine the concentration of tau fibrils in the 48 h fibril reaction mixture.
as §4, §2

synthetic Aβ1–42 fibrils [8] = target: T4, synthetic Aβ1–42 fibrils (Homo sapiens, UniProt P05067); assay: biochemical
Experimental: (§6) Synthetic Aβ1–42 peptide (1 mg) (Bachem, Torrance, CA) was first dissolved in 50 µl DMSO. An additional 925 µl of mQ-H2O was added. […] The dissolved peptide was incubated for 30 h at 37°C with shaking at 1000 rpm in an Eppendorf Thermomixer. […] To determine the concentration of fibrils, the fibril reaction mix was centrifuged at 15,000×g for 15 min to separate fibrils from monomer. The concentration of Aβ monomer in the supernatant was determined in a BCA protein assay using a BSA standard curve that contained DMSO at a percentage equivalent to the samples.
as §4
Reactions were incubated at 37°C for 2 h before quantifying bound radioligand as described above for the saturation binding assay.

[9] = system: insoluble fractions from control human brain tissue; assay: [125I]SIL23 saturation binding to insoluble fractions of control brain tissue; details: four control cases, listed as [^125I]SIL23
Experimental: Brain tissue samples were selected from an autopsy case series of patients evaluated for parkinsonism by movement disorders specialists at the Movement Disorders Center of Washington University School of Medicine in St. Louis. The clinical diagnosis of idiopathic PD was based on modified United Kingdom Parkinson’s Disease Society Brain Bank clinical diagnostic criteria with clear clinical response to levodopa. Dementia was determined by a movement disorders specialist based on clinical assessment of cognitive dysfunction sufficiently severe to impair activities of daily living, with further evaluation of cognitive impairment using the AD8 [20] and Mini-Mental Status Exam (MMSE). LB stage was assessed at autopsy using a PD staging scale (range: 0, 1–6). PD cases were selected based on a clinical diagnosis of PD plus dementia, Braak LB stage 5–6 pathology, and the absence of significant Aβ or tau pathology determined by immunohistochemistry. Control cases were selected based on the absence of α-syn, Aβ and tau pathology. Samples were used from both male and female subjects.
(§1) All data points were performed in triplicate.

synthetic Aβ1–42 fibrils [10] = target: T4, synthetic Aβ1–42 fibrils
Experimental: as §6, §4

[11] = system: crude PBS homogenate from control human brain; assay: [125I]SIL23 saturation binding to crude control brain homogenate; details: unfractionated PBS homogenate
Experimental: as §1

recombinant tau fibrils [12] = target: T3, recombinant tau fibrils
Experimental: as §5, §4

T3 sequence (P10636 560-692): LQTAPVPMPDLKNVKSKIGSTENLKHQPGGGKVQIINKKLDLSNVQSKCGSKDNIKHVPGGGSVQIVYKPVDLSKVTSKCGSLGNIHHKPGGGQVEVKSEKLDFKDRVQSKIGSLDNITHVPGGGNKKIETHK
T4 sequence (P05067 672-713 limits assumed): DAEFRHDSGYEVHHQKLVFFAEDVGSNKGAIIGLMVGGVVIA

In the case of `CNc1ccc(/C=C/c2ccc(OCCOCCOCCF)nc2)cc1` [AV-45], the “average Bmax (binding site density) for AV-45 binding in AD brain” value (Aβ plaques in AD brain [1]; AD brain) is listed as 8.8 pmol/mg protein and the Kd (Aβ plaques in AD brain [1]; read-out: Kd for AV-45 binding to Aβ plaques) is listed as 3.7 nM.
In the case of `CN(C)c1ncc(/C=C/c2nc3ccc(OCCF)cc3o2)s1` [BF227], the Ki [2] is given as 138 nM, the Ki [3] is given as 39.7 nM and the “radiolabeled BF227 binding in PD tissue” value (PD tissue) is given as “not detectable”.
For `O=C(O)c1cc(/N=N/c2ccc(-c3ccc(/N=N/c4ccc(O)c(C(=O)O)c4)cc3)cc2)ccc1O` [Chrysamine G], the Ki [4] was 432 nM and the Ki [5] was 367 nM.
For `CNc1ccc(-c2nc3ccc(O)cc3s2)cc1` [PiB, Pittsburgh Compound B], the Ki [4] is given as 116 nM, the Ki [5] is given as 99.2 nM and the “average Bmax (binding site density) for PiB binding in AD brain” value (Aβ plaques in AD brain [6]; AD brain) is given as 1407 pmol/g wet weight. The Kd (Aβ plaques in AD brain [6]; read-out: Kd for PiB binding to Aβ plaques) was 2.5 nM.
In the case of `O=[N+]([O-])c1ccc2c(c1)Sc1ccccc1N2` [SIL3B], the Ki (recombinant tau fibrils [7]) is reported as 52.3 nM and the Ki (synthetic Aβ1–42 fibrils [8]) is reported as 71.5 nM.
Work on `COc1ccc2c(c1)Sc1cc([N+](=O)[O-])ccc1N2` [SIL5] yielded a Ki (synthetic Aβ1–42 fibrils [8]) of 110 nM.
In the case of `O=[N+]([O-])c1ccc2c(c1)Sc1cc(Br)ccc1N2` [SIL22], the Ki (recombinant tau fibrils [7]) is reported as 173 nM and the Ki (synthetic Aβ1–42 fibrils [8]) is reported as 102 nM.
In the case of `O=[N+]([O-])c1ccc2c(c1)Sc1cc(OC/C=C/I)ccc1N2` [SIL23], the “[125I]SIL23 binding in control cases” value [9] is reported as “no significant [^125I]SIL23 binding”, the “Bmax of [125I]SIL23 binding to Aβ1–42 fibrils” value (synthetic Aβ1–42 fibrils [10]) is reported as 23.7 pmol/nmol and the “[125I]SIL23 binding in crude homogenate of a control case” value [11] is reported as “no significant binding”. The “[125I]SIL23 binding in crude homogenate of a control case” value ([11]; listed as [^125I]SIL23) was “No significant specific binding” and the “Bmax of [125I]SIL23 binding to tau fibrils” value (recombinant tau fibrils [12]) was 4.57 pmol/nmol.
